Reference: US20110044907A1, “IN VIVO SCREENING ASSAYS” (priority 2009, published 2011)
Counter-ions that a name gives are not always drawn.

How the values were obtained:
[1] = system: BxPC-3-GFP tumor cells; assay: Surgical orthotopic implantation of BxPC-3-GFP pancreatic tumor cells in nude mice; type: in vivo, mouse; details: female NCr nu/nu mice; AB0023 30 mg/kg IP twice per week 6 weeks; Gemzar 200 mg/kg IP once per week 3 weeks
Protocol: Tumor formation and metastasis are monitored by fluorescence imaging.
Approximately 75 female nude mice (NCr nu/nu), 5-6 weeks old, are anesthetized by intraperitoneal injection of a solution of 100 mg/kg ketamine and 5 mg/kg xylazine. Under anesthesia, BxPC-3-GFP tumor cells are surgically implanted, by suturing into the pancreas. […] Each group contains 15 animals, and all administrations are intraperitoneal.
Body weight is determined once per week.
At the conclusion of the study, blood is collected by cardiac puncture and one ml is used for preparation of serum.
The other half is snap frozen for RNA isolation.

[2] = system: MDA-MB-231-luc-D3H2LN cells; assay: Breast tumor metastasis model, intracardiac injection, bioluminescent imaging; type: in vivo, mouse; details: AB0023 30 mg/kg IP twice per week; taxol 5 mg/kg daily
Protocol: In this model system, MDA-MB-231-luc-D3H2LN cells (Caliper Life Sciences, Hopkinton, Mass.), a derivative of a human breast cancer cell line that has been stably transfected with a luciferase gene were introduced into female nude mice by intracardiac injection. The cells are disseminated through the circulation, and the occurrence and location of metastases are determined by in vivo bioluminescent imaging (BLI).
Approximately 80 female nude mice (NCr nu/nu), 8-10 weeks old, were anesthetized by intraperitoneal injection of a solution of 100 mg/kg ketamine and 5 mg/kg xylazine. […] Bioluminescence from whole body and lung projection was measured and expressed as photons per second. If the ratio of whole body luminescence to lung luminescence was less than 3, the mouse was excluded from the study. […]
Ventral and dorsal views of the animals were obtained by in vivo bioluminescent imaging (BLI) on days 0, 7, 10, 13, 16, 21, 24 AND 28; using the IVIS®-Spectrum imaging system (Caliper Life Sciences, Hopkinton, Mass.). Data were analyzed using Living Image 3.0 Software (Caliper Life Sciences, Hopkinton, Mass.).
Body weight was measured once per week for the first two weeks of the study, then three times per week until the conclusion of the study. […]

Nc1ccn([C@@H]2O[C@H](CO)[C@@H](O)C2(F)F)c(=O)n1 [Gemzar, gemcitabine-HCl]
mean tumor volume [1]: reduced

CC(=O)O[C@H]1C(=O)[C@@]2(C)[C@H]([C@H](OC(=O)c3ccccc3)[C@]3(O)C[C@H](OC(=O)[C@H](O)[C@@H](NC(=O)c4ccccc4)c4ccccc4)C(C)=C1C3(C)C)[C@]1(OC(C)=O)CO[C@@H]1C[C@@H]2O [taxol]
survival advantage compared to vehicle-treated animals [2]: not observed
